Literature values in paper PMC9160825, “Structural and Functional Characterization of a Novel Scorpion Toxin that Inhibits NaV1.8 via Interactions With the DI Voltage Sensor and DII Pore Module” (Frontiers in Pharmacology, 2022).

Assays:
house mouse NaV1.8 = settings: ref Zhang and Bean, 2021
[1] = test system: DRG nociceptive sensory neurons
Text: In addition to modifying activation and fast inactivation gating, NaTx36 modifies slow inactivation gating in OtNaV1.8 by substantially shifting the voltage dependence to hyperpolarized membrane potentials (Figure 5B). Slow inactivation differs from fast inactivation in voltage- and time-dependent properties. While fast inactivation inhibits NaV excitability within milliseconds of action potential firing, slow inactivation develops in response to prolonged membrane depolarization (tens of seconds) or a series of action potentials, inhibiting NaV excitability over longer timescales (seconds to ...

[2] = test system: sodium channel DI voltage sensor; design: method as in Xiao et al., 2014; settings: ref Xiao et al., 2014

Compound: C=C(C)[C@@H]1CCC(C)=C[C@H]1c1c(O)cc(CCCCC)cc1O [CBD, cannabidiol]
- inhibition of house mouse NaV1.8 (house mouse NaV1.8): inhibited house mouse NaV1.8 in a state-dependent manner
- repetitive action potential firing and DRG neuronal excitability ([1]; ref Zhang and Bean, 2021): reduces repetitive action potential firing and DRG neuronal excitability

Compound: COc1cc(CNC(=O)CCCC/C=C/C(C)C)ccc1O [capsaicin]
- NaV1.8 TTX-R Na+ currents and action potential firing ([1]; sustained excitation of DRG membranes, ref Blair and Bean, 2003): caused a decrease in NaV1.8 TTX-R Na^+ currents and action potential firing

Compound: ProTx-II: spider toxin
- effect on gating pore currents via DI voltage sensor [2]: modify the voltage dependence of gating pore currents
